Source: article PMC4113009, “Dihydroisoxazole inhibitors of Anopheles gambiae seminal transglutaminase AgTG3” (Malaria Journal, 2014)

Tests used:
AgTG3 [1] = target: T1, AgTG3 (Anopheles gambiae, UniProt D2K8K8); test: biochemical; details: dose–response curves in the range of 0.5–100 μM, FITC-CAD plate assay; read-out: IC50 for inhibition of AgTG3
Protocol: Plugin-C (25 μg/well) was incubated in black 96-well Ni-coated plates (Pierce 15342) for 2 h at room temperature or overnight at 4°C. Plates were washed three times with 200 μL of TBS and loaded with 0.5 μg of AgTG3 in 50 μL TBS buffer. DHI inhibitors were added for 1 h to block the enzyme, followed by 50 μL of 2× assay buffer (2× TBS, 20 mM CaCl2, 100 μM FITC-CAD, 2 mM DTT). Wells were incubated for 60 min at room temperature, washed three times with 200 μL of TBS, and filled to a final volume of 100 μL for fluorescence measurements in a microplate reader (Biotek Synergy 2). The z-score was calculated based on the mean and standard deviation of three replicates of inhibitor compared to a DMSO control, zi=x¯DMSO-x¯i/σDMSO+σi .
The targeted chemical library was screened for inhibition of AgTG3 at 100 μM in a FITC-CAD plate assay (Figure 3A), performed in triplicate as previously described. Hit-calling was based on >67% decrease in fluorescence compared to DMSO and z > 5. Seven compounds fulfilled these criteria in the primary assay.
To verify the results of this preliminary assay, dose–response curves in the range of 0.5–100 μM were determined for 27 structurally related compounds within the targeted library (Additional file 3: Table S2 and Additional file 4: Table S3). […] Selected stereoisomers present in the targeted library were compared in equivalent dose–response assays. Inhibition of AgTG3 was specific for the (S)-DHI isomer of 1 (Figure 4A), the (R) isomer (4) displaying no activity (IC50 > 100 μM).

AgTG3 [2] = target: T1, AgTG3; test: Covalent modification of AgTG3 by ESI-MS and tandem MS/MS; type: binding
Protocol: Recombinant AgTG3 (20 μM) was dialyzed against HEPES buffer containing 100 mM NaCl, 10 mM CaCl2, and 5% glycerol. Inhibitors were added to a final concentration of 100 μM and incubated overnight. Samples were subsequently injected on a Waters ACQUITY Ultraperformance liquid chromatography (UPLC) system coupled to an ACQUITY UPLC Photodiode Array (PDA) λ detector. Electrospray ionization (ESI) mass spectrograms were collected in the positive ion mode and subsequently transformed for molecular weight determination using MASSLYNX software (Waters).
Samples prepared for ESI-MS (50 μL) were pretreated with 2 μL of 10 g/l trypsin (Sigma) for 1 h at 37°C. The reaction was stopped by formic acid, and the sample was submitted to the W.M. Keck Biotechnology Resource Laboratory (Yale University) for tandem MS/MS proteomics analysis. Results were further analysed using the online MassMatrix server.
DHI inhibitors form a thioether bond with the TG active site cysteine, a modification that should be detectable by mass spectrometry. […] AgTG3 was treated with 100 μM 3 overnight and the intact protein subsequently analyzed by ESI-MS (Figure 8A). The parent mass for unmodified AgTG3 was detected at m/z = 84173 Da. […] The expected m/z shift for reaction with 3 is +470, however, […] than what was observed. To confirm the mass shift corresponds to modification of the active site cysteine with 3, treated AgTG3 was subjected to tryptic digestion and LC-MS/MS analysis. […] No other modified cysteines were detected in the protein. Taken together, the secondary in vitro assays of cross-linking and covalent modification confirm 1–3 as active site inhibitors of AgTG3.

human caspase-1 = target: T2, human caspase-1 (Homo sapiens, UniProt P29466); test: Cysteine protease inhibition assay, caspase-1 (Ac-YVAD-pNA); type: biochemical; details: 3 at 100 μM, compared to a DMSO control, chromogenic assay
T2 construct: purchased Abcam
T2 sequence (P29466 120-297 limits assumed): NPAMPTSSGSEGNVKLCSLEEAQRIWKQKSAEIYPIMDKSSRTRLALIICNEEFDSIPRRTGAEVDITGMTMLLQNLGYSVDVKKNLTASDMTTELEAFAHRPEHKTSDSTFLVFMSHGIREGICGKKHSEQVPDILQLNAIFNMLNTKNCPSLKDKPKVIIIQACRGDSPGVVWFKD
T2 sequence (P29466 317-404 limits assumed): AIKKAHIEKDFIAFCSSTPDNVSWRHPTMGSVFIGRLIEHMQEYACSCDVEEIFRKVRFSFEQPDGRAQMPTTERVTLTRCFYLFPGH
Protocol: The activity of caspase-1 was determined by use of chromogenic substrate Ac-YVAD-pNA (Enzo Life Sciences, NY, USA). The assay was performed by adding 45 μL of 1 Unit caspase-1 (Abcam, MA, USA) and 5 μL of Ac-YVAD-pNA (final concentration, 5 μM) to 50 μL assay buffer (50 mM HEPES pH 7.4, 10 mM DTT, 1 mM EDTA, 0.1% CHAPS, 20% glycerol). Substrate cleavage after 1 h incubation at 37°C was measured by […] absorbance at 400 nm in a benchtop UV/Vis spectrophotometer (UV1800, Shimadzu, Kyoto, Japan).
Transglutaminases and cysteine proteases have a similar catalytic mechanism involving an active site cysteine and formation of a thioacyl intermediate. […] To test this hypothesis, the inhibition of two cysteine proteases, human caspase-1 and recombinant tobacco etch virus (TEV) protease by 3 at 100 μM were tested using a chromogenic and SDS-PAGE assay, respectively (Figure 9). […] Neither human caspase-1 nor TEV are endogenous proteins in A. gambiae, which may well contain other endogenous targets of 1–3, not least the two other transglutaminases in the A. gambiae genome.

[3] = tested on: Anopheles gambiae G3 strain mosquitoes; test: Anopheles gambiae laboratory mating assay (mating plug transfer); type: in vivo
Protocol: Anopheles gambiae G3 strain mosquitoes from a laboratory colony were reared using standard conditions (26–28°C, 65–80% relative humidity, 12 h/12 h Light/Darkness (L:D) photoperiod). Mosquitoes were sexed as pupae and adult males and females were allowed to emerge in separate cages to ensure their status as virgins. Three-day-old virgin males were injected with 138 nl of 100 μM of inhibitor diluted in 5% DMSO, or with 138 nl of a 5% DMSO solution as a control. Mating experiments were performed four days after eclosion as described previously and couples were captured in copula. RNAi experiments were performed as previously described. Mated females were dissected within two hours of mating to determine the presence of the mating plug in their atrium.
Finally, A. gambiae laboratory mating assays were performed to test if the DHI inhibitors identified in the pilot screen could inhibit male transfer of the mating plug. Compound 3, 100 μM in DMSO, was administered to male mosquitoes by intrathoracic injection. Injected males were mated with virgin females, and their ability to transfer a mating plug to females was assessed (Table 1). […] Thus, injection of males with AgTG3 inhibitor 3 is at least as effective as injection of dsRNA to inhibit mating plug formation in A. gambiae males.

T1 sequence (D2K8K8 entry or part of it): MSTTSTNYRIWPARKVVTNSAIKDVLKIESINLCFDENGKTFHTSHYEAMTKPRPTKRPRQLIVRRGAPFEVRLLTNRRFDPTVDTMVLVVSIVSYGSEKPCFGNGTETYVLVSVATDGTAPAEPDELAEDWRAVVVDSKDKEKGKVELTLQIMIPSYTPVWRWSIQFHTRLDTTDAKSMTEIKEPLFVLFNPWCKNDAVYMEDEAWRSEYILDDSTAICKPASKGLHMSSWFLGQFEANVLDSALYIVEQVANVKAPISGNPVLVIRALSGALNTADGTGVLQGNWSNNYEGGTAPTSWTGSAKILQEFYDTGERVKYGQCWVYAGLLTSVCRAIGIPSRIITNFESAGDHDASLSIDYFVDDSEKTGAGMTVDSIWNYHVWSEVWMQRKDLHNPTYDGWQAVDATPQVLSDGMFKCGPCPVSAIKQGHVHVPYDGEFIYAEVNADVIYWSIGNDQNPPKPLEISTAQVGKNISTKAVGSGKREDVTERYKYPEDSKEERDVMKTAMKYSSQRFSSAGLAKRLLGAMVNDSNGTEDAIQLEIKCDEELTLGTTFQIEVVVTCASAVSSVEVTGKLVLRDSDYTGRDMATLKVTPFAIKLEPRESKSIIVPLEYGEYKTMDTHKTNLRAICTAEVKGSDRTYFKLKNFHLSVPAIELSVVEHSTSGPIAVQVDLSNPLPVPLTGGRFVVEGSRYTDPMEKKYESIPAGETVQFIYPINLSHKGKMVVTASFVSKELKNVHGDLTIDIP

For `O=C(N[C@@H](Cc1c[nH]c2ccccc12)C(=O)NC[C@@H]1CC(Br)=NO1)OCc1cnc2ccccc2c1`, the IC50 (AgTG3 [1]) was 6.1 µM, the “Mass shift of intact AgTG3 after treatment” value (AgTG3 [2]; 100 μM overnight, ESI-MS) was “+465 m/z” and the “Mass shift of tryptic peptide containing AgTG3 active site cysteine” value (AgTG3 [2]; 100 μM overnight, tryptic digestion, LC-MS/MS) was “+469 amu”. The “Site of covalent modification of AgTG3” value (AgTG3 [2]; y ion fragmentation, no other modified cysteines detected) was “specific modification of Cys 323”, the “Inhibition of caspase-1” value (human caspase-1) was “no inhibition of the protease” and the “Reduction in transfer of the mating plug” value ([3]; intrathoracic injection of males) was 15%. The “Mating plug transferred (number of females)” value ([3]; males injected intrathoracically (3: 138 nl of 100 μM; dsRNA as ref 39), N 75 (3), 77 (dsAgTG3)) was 64, the “No plug transferred (number of females)” value ([3]; males injected intrathoracically (3: 138 nl of 100 μM; dsRNA as ref 39), N 75 (3), 77 (dsAgTG3), three independent experiments) was 11 and the “Females that failed to receive a mating plug” value ([3]; males injected intrathoracically, DMSO control 3%, dsLacZ control 2%) was 15%. For the same molecule, the “Ill effect of injection on males” value ([3]; males injected with 3) was “no obvious ill effect from wounding”.
